Assay results reported in US7045528B2, “Benzofused heterozryl amide derivatives of thienopyridines useful as therapeutic agents, pharmaceutical compositions including the same, and methods for their use” (Agouron Pharmaceuticals, Inc., priority 2002, dated 2006).

Legend:
Huvec = experiment: bFGF Huvec proliferation; type: cell-based, human; conditions: Homo sapiens, HUVEC
[1] = test system: human umbilical vein endothelial cells (HUVEC); experiment: HUVEC+VEGF proliferation assay; type: cell-based; conditions: Homo sapiens, HUVEC; VEGF 6 ng/mL, 72 h, MTT
How it was run: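 Exponentially growing passage 3–4 HUVEC were starved 24 h in F12K + 1% FBS, given compound (0.1% final DMSO) 1 h before 6 ng/mL final VEGF, then cultured 72 h. Proliferation was read as MTT dye reduction (4 h exposure), absorbance at 595 nm.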

[2] = biological target: T1, unphosphorylated VEGF-R2Δ50 (FLVK) (Homo sapiens, UniProt P35968, DEL940-989/E990V); experiment: VEGF-R2 coupled spectrophotometric assay, unphosphorylated VEGF-R2Δ50 (FLVK); type: biochemical; conditions: unphosphorylated VEGF-R2Δ50; for inhibition at 0.05 µM: 50 nM compound, read-out: FLVK (% inh @ 50 nM)
T1 construct: VEGF-R2Δ50 contains residues 806–939 and 990–1171; made in house; host or cells: baculovirus/insect cell system
T1 sequence (P35968 with tags, fused parts or gaps DEL940-989/E990V limits assumed): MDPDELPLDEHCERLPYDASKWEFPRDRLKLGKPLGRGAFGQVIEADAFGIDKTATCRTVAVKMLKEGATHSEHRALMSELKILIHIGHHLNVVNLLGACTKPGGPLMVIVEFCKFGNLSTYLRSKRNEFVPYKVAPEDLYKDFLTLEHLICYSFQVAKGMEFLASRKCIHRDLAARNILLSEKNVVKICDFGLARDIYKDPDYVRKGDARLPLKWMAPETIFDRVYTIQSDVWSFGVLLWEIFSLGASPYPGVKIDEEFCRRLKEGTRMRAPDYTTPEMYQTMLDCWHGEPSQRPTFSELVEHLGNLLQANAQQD
How it was run: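 Baculovirus-expressed human VEGF-R2Δ50 (kinase insert partly deleted, E990V), unphosphorylated form; ADP production coupled via PK/LDH to NADH oxidation, read at 340 nm. 20 mM poly(E4Y1), 3 mM ATP, 60 mM MgCl2, 2 mM MnCl2, 200 mM HEPES pH 7.5; 5–40 nM enzyme. Ki from Morrison tight-binding fit.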

KDR (VEGFR2) = biological target: T2, KDR (VEGFR2) (Homo sapiens, UniProt P35968); experiment: KDR (VEGFR2) phosphorylation in PAE-KDR cells assay; type: cell-based; conditions: PAE cells overexpressing human KDR, VEGF stimulated; read-out: PAE KDR autophos IC50 (nM) AVG
T2 construct: expressed in transfected cells; host or cells: porcine aorta endothelial (PAE)-KDR cells
T2 sequence (P35968 20-1356): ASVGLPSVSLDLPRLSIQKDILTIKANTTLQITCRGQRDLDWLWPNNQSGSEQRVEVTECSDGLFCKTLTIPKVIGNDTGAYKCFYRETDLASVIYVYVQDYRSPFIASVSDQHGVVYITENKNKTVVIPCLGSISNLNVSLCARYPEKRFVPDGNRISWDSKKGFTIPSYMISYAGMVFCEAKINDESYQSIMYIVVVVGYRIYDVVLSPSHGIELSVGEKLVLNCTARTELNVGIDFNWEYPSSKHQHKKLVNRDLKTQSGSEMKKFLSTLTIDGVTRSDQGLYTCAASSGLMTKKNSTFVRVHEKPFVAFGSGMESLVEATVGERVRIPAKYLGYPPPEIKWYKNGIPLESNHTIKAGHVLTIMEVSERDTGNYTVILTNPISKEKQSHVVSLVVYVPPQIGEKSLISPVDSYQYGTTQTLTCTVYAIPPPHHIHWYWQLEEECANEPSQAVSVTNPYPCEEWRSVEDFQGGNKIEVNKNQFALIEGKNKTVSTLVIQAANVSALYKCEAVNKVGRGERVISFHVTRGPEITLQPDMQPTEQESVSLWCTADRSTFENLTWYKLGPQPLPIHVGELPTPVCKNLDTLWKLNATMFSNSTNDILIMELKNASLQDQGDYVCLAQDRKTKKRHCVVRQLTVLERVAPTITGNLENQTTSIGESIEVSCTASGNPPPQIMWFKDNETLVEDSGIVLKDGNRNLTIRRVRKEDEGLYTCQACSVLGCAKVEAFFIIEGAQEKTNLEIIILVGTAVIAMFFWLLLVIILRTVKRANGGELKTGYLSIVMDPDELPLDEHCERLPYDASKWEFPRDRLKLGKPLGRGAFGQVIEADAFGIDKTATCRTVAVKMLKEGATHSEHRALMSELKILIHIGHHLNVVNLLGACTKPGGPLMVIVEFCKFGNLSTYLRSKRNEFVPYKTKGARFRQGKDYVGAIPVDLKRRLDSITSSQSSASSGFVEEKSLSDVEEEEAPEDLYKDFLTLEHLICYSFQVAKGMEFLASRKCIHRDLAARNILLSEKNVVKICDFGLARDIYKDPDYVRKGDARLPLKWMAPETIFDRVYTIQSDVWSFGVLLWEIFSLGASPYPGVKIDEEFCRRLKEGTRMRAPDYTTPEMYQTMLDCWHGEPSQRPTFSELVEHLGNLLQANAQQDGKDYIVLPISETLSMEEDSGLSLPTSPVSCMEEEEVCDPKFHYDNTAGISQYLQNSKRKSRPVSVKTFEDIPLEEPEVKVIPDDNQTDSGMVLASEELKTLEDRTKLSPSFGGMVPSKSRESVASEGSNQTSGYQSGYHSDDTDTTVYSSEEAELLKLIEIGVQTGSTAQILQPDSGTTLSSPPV
Description: KDR (VEGFR2) Phosphorylation in PAE-KDR Cells Assay
This assay determines the ability of a test compound to inhibit the autophosphorylation of KDR in porcine aorta endothelial (PAE)-KDR cells. PAE cells that overexpress human KDR were used in this assay. The cells were cultured in Ham's F12 media supplemented with 10% fetal bovine serum (FBS) and 400 ug/mL G418. Thirty thousands cells were seeded into each well of a 96-well plate in 75 μL of growth media and allowed to attach for 6 hours at 37° C. Cells were then exposed to the starvation media (Ham's F12 media supplemented with 0.1% FBS) for 16 hours. After the starvation period was over, 10 μL of test agent in 5% DMSO in starvation media were added to the test wells and 10 μL of the vehicle (5% DMSO in starvation media) were added into the control wells. The final DMSO concentration in each well was 0.5%. Plates were incubated at 37° C. for 1 hour and the cells were then stimulated with 500 ng/ml VEGF (commercially available from R & D System) in the presence of 2 mM Na3VO4 for 8 minutes. The cells were washed once with 1 mm Na3VO4 in HBSS and lysed by adding 50 μL per well of lysis buffer. One hundred μL of dilution buffer were then added to each well and the diluted cell lysate was transferred to a 96-well goat ant-rabbit coated plate (commercially available from Pierce) which was pre-coated with Rabbit anti Human Anti-flk-1 C-20 antibody (commercially available from Santa Cruz). The plates were incubated at room temperature for 2 hours and washed seven times with 1% Tween 20 in PBS. HRP-PY20 (commercially available from Santa Cruz) was diluted and added to the plate for a 30-minute incubation. Plates were then washed again and TMB peroxidase substrate (commercially available from Kirkegaard & Perry) was added for a 10-minute incubation. One hundred μL of 0.09 N H2SO4 was added to each well of the 96-well plates to stop the reaction. Phosphorylation status was assessed by spectrophotometer reading at 450 nm. IC50 values were calculated by curve fitting using a four-parameter analysis.

inhibition at 0.05 µM [2] [%] | Ki [2] [nM] | IC50 (KDR (VEGFR2)) [nM] | SMILES | IC50 (Huvec) [nM] | IC50 [1] [nM]
75 | 2.63 | 1.7 | CNC(=O)c1c(C)n(C)c2cc(Oc3ccnc4cc(C(=O)N5CC[C@@H](O)C5)sc34)ccc12 [Example 19, 1,2-dimethyl-6-(2-[3-hydroxy-pyrrolidine-1-carbonyl]thieno[3,2-b]pyridin-7-yloxy)-1H-indole-3-carboxylic acid methylamide] | 10000 | 2.7
92 | 1.02 | 0.31 | CNC(=O)c1c(C)sc2cc(Oc3ccnc4cc(-c5nccn5C)sc34)ccc12 [Example 1, 2-methyl-6-(2-[1-methyl-1H-imidazol-2-yl]thieno[3,2-b]pyridin-7-yloxy)benzo[b]thiophene-3-carboxylic acid methylamide] | 122 | 0.68
78 | 2.37 | 0.62 | CNC(=O)c1c(C)n(C)c2cc(Oc3ccnc4cc(C(=O)N5CC[C@@H](OC)C5)sc34)ccc12 [Example 18, 1,2-dimethyl-6-(2-[3-methoxy-pyrrolidine-1-carbonyl]thieno[3,2-b]pyridin-7-yloxy)-1H-indole-3-carboxylic acid methylamide] | 1000 | 0.64
75 | 4.14 | 1.8 | CNC(=O)c1c(C)sc2cc(Oc3ccnc4cc(C(=O)N5CCC[C@H]5COC)sc34)ccc12 [Example 2, 6-(2-[(S)-2-(methoxymethyl)pyrrolidine-1-carbonyl]thieno[3,2-b]pyridin-7-yloxy)-2-methylbenzo[b]thiophene-3-carboxylic acid methylamide] | 3330 | 2.3
97 | 0.322 | 0.21 | CNC(=O)c1c(C)oc2cc(Oc3ccnc4cc(-c5nccn5C)sc34)ccc12 [Example 13] | 27 | 0.082
91 | 0.57 | 0.24 | CCCCNC(=O)c1c(C)n(C)c2cc(Oc3ccnc4cc(-c5nccs5)sc34)ccc12 [Example 62, 1,2-Dimethyl-6-(2-thiazol-2-yl-thieno[3,2-b]pyridin-7-yloxy)-1H-indole-3-carboxylic acid butylamide] | 619 | 2.15
59 | 0.811 | 0.9 | CNC(=O)c1c(C)sc2cc(Oc3ccnc4cc(C(=O)N5CCC[C@H]5CO)sc34)ccc12 [Example 3] | 942 | 0.442
88 | 2.58 | 0.47 | CNC(=O)c1c(C)sc2cc(Oc3ccnc4cc(C(=O)N5CC[C@@H](OC)C5)sc34)ccc12 [Example 4, 6-(2-[(R)-3-methoxypyrrolidine-1-carbonyl]thieno[3,2-b]pyridin-7-yloxy)-2-methylbenzo[b]thiophene-3-carboxylic acid methylamide] | – | 0.404
77 | 2.77 | 0.47 | CNC(=O)c1c(C)n(C)c2cc(Oc3ccnc4cc(-c5nccn5C)sc34)ccc12 [Example 17, 1,2-dimethyl-6-(2-[1-methyl-1H-imidazol-2-yl]thieno[3,2-b]pyridin-7-yloxy)-1H-indole-3-carboxylic acid methylamide] | 847 | 1.2
89 | – | 0.4 | CCCNC(=O)c1c(C)n(C)c2cc(Oc3ccnc4cc(-c5nccn5C)sc34)ccc12 [Example 61, 1,2-Dimethyl-6-[2-(1-methyl-1H-imidazol-2-yl)thieno[3,2-b]pyridin-7-yloxy]-1H-indole-3-carboxylic acid propylamide] | 4000 | 0.605
99 | 0.082 | 0.217 | Cc1c(C(=O)NC2CC2)c2ccc(Oc3ccnc4cc(-c5nccn5C)sc34)cc2n1C [Example 20, 1,2-Dimethyl-6-[2-(1-methyl-1H-imidazol-2-yl)-thieno[3,2-b]pyridin-7-yloxy]-1H-indole-3-carboxylic acid cyclopropylamide] | 1900 | 0.19
94 | 0.721 | – | CNC(=O)c1c(C)sc2cc(Oc3ccnc4cc(C(=O)N5CC[C@@H](O)C5)sc34)ccc12 [Example 6, 6-(2-[(R)-3-hydroxypyrrolidine-1-carbonyl]thieno[3,2-b]pyridin-7-yloxy)-2-methylbenzo[b]thiophene-3-carboxylic acid methylamide] | 145 | 1.2
100 | 0.314 | 0.14 | CNC(=O)c1c(C)oc2cc(Oc3ccnc4cc(C(=O)N5CC[C@@H](OC)C5)sc34)ccc12 [Example 12, 6-(2-[3-methoxypyrrolidine-1-carbonyl]thieno[3,2-b]pyridin-7-yloxy)-2-methylbenzofuran-3-carboxylic acid methylamide] | 20 | 0.26
